# Experimental data: patent US20070010477A1, “Acyl homoserine lactones for inhibition of cell growth” (priority 2005, published 2007)
# How the values were obtained:
# TS [1] = assay: Western blot of TS protein down-regulation in H630 cells; format: cell-based, human; conditions: for down-regulation of TS protein (activity in words): 18-20 hours after addition
# Protocol: Conventional techniques were used to propagate and maintain the H630 and H630-1 cell lines (see, for example Dolnick, et al. (2003) Cancer Biology & Therapy, 2: 364-369; Stephanie, et al. (2001) In: Proceedings AACR, New Orleans, La., pp. 493). For the investigation of effects on TS expression, cells were extracted at 18-20 hours after the addition of AHLs. For Western blot analysis, proteins were extracted and Western blotting was performed by standard methods using blots blocked with 5% nonfat dried milk dissolved in 10 mM Tris-HCl, pH 8.0, 150 mM sodium chloride, 0.05% Tween-20. The blots were probed using either monoclonal (4D5E11) or polyclonal antibodies to TS and then probed for α-tubulin (monoclonal antibody B-5-1-2, Sigma Biochemicals) to confirm equivalent protein loading. The same blots were successively probed with anti-rTSβ or anti-TS, and finally anti-tubulin. After probing for each protein, the blots were stripped by incubation in 8 M guanidine HCl. Detection of rTS protein was performed with mouse monoclonal antibody D3, prepared against recombinant rTSβ protein. All Western blots were detected using the horseradish peroxidase-based West Pico Dura chemiluminescent substrate (Pierce) and horseradish peroxidase-coupled F(ab′)2 fragments (Jackson ImmunoResearch Laboratories, West Grove, Pa.) as secondary antibodies
# These AHLs were synthesized as described previously (Chhabra, et al., 1993, J. Antibiotics 46, 441-454). For studies with the H630-1 cell line, AHLs were either dissolved in RPMI 1640 (hydroxy-butanoyl-, butanoyl-, 3-(oxo)-hexanoyl-homoserine lactones) or in dimethyl sulfoxide (DMSO) (hexanoyl-homoserine lactones) and added to mid-log H630 cells in RPMI1640 containing 10 μM methionine and 1× ITS+ culture supplement (BD Bioscience) in place of serum at the indicated concentrations. […] After 18 hr, the medium was removed, the cells washed twice and protein extracted. The extracted proteins were separated on denaturing polyacrylamide gels and probed for rTS, TS and tubulin using specific antibodies.
# This embodiment describes the down regulation of TS by AHLs as a ftmction of time. H630 cells were incubated with medium containing 3-oxo-hexanoyl-L-HSL (3 mM) as described for Example 5. The extraction and analysis was also carried out as described in Example 5 at the indicated times after drug addition.
# (§1) A variety of AHLs with acyl-chains containing 4- to 12-carbons (C4-C12) and 3-hydroxy or 3-keto substituents were prepared as described in Example 1 and analyzed for their effect on TS protein expression by Western blotting. Although several of the shorter chain AHLs (C4-C6) can cause loss of TS, the required concentrations are in the mM range. […] The latter observation indicates 3-oxo-C12-HSL has effects on gene expression aside from the down-regulation of TS. In this regard, FIG. 8C provides a photographic representation of the effect of 23 μmol/L 3-oxo-C12-HSL on TS mRNA levels in H630 cells (20 hours of exposure) as evaluated by RT-PCR. […] Microarray analysis of H630 RNA was done using the Affymetrix (Santa Clara, Calif.) HGU133A GeneChip. Microarray data was analyzed using Genetraffic software (Stratagene, La Jolla, Calif.) with the Robust Multichip Analysis method (Lauren et al., (2003) IEEE Trans Nanobioscience; 2:163-70) for measuring probe intensity and scaling. Results for treated and untreated cells were analyzed for significant changes within each experiment (P<0.05) as well as for changes in pooled data from three separate experiments. RNA for RT-PCR or microarray analysis was prepared using an RNAeasy kit from Qiagen (Valencia, Calif.).
# H630 cells [2] = assay: Growth inhibition, cells counted 3 days after addition; format: cell-based, human
# H630 cells [3] = assay: Colony formation assay; conditions: for enhancement of activity by 3-oxo-C12-HSL: colony formation, 23 μM 3-oxo-C12-HSL
# H630-1 cells [4] = assay: Colony formation assay; format: cell-based, human; conditions: for enhancement of activity by 3-oxo-C12-HSL: colony formation, 8 μM 3-oxo-C12-HSL
# tubulin = assay: Western blot of tubulin in H630 cells; format: cell-based, human; conditions: FIG. 8B
# Protocol: Conventional techniques were used to propagate and maintain the H630 and H630-1 cell lines (see, for example Dolnick, et al. (2003) Cancer Biology & Therapy, 2: 364-369; Stephanie, et al. (2001) In: Proceedings AACR, New Orleans, La., pp. 493). For the investigation of effects on TS expression, cells were extracted at 18-20 hours after the addition of AHLs. For Western blot analysis, proteins were extracted and Western blotting was performed by standard methods using blots blocked with 5% nonfat dried milk dissolved in 10 mM Tris-HCl, pH 8.0, 150 mM sodium chloride, 0.05% Tween-20. […] All Western blots were detected using the horseradish peroxidase-based West Pico Dura chemiluminescent substrate (Pierce) and horseradish peroxidase-coupled F(ab′)2 fragments (Jackson ImmunoResearch Laboratories, West Grove, Pa.) as secondary antibodies
# A variety of AHLs with acyl-chains containing 4- to 12-carbons (C4-C12) and 3-hydroxy or 3-keto substituents were prepared as described in Example 1 and analyzed for their effect on TS protein expression by Western blotting. […] In this regard, FIG. 8C provides a photographic representation of the effect of 23 μmol/L 3-oxo-C12-HSL on TS mRNA levels in H630 cells (20 hours of exposure) as evaluated by RT-PCR. […]
# TS mRNA = assay: RT-PCR of TS mRNA levels in H630 cells; format: cell-based, human; conditions: 23 μmol/L, 20 hours of exposure
# Protocol: as §1, with “Calif.). […]” for “Calif.).”
# TS [5] = target: T1, TS (Homo sapiens, UniProt P04818); assay: TS modulation assay (luciferase mRNA containing TS binding elements) in H630 cells; format: cell-based; conditions: H630 cells treated with IC50 concentration
# T1 construct: effects of AHLs on TS and tubulin in H630 cells; endogenous in cells; host or cells: H630 human colon cancer cells
# T1 sequence (P04818 whole entry): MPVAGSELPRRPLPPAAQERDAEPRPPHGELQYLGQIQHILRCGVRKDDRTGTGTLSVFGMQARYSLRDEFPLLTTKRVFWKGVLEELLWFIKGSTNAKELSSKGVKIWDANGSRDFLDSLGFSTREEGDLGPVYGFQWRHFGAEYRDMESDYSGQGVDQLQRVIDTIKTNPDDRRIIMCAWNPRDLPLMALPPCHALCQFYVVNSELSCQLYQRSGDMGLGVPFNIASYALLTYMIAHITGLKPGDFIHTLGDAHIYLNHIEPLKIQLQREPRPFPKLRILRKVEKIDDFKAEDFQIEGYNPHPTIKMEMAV
# H630-1 cells [6] = assay: Growth inhibition, cells counted 3 days after addition; format: cell-based, human
# MCF-7 cells = assay: Growth inhibition; format: cell-based, human; conditions: MCF-7 breast cancer cell line
# NCI-H460 = assay: Growth inhibition; format: cell-based, human; conditions: NCI-H460 lung cancer cell line
# H630-1 = assay: Sulforhodamine-B growth inhibition assay, 5 days; format: cell-based, human; conditions: H630-1 cells, SRB staining
# Protocol: (§2) For growth inhibition assays described in this Example, H630, H630-1 and PC-3 (prostate cancer cells) cells were growth in the presence of HSL analog for 5 days. At the end of day 5, cells were fixed and stained with Sulforhodamine-B (SRB), a protein-staining dye. Excess SRB was removed leaving only dye bound to proteins from cells. Protein-bound SRB was then dissolved in base and quantified by spectrophotometric absorbance. In this assay, the amount of SRB bound to protein correlates with the number of cells present, allowing for the analysis of growth of treated versus untreated samples. The HSL analogs are administered at 10 concentrations, spanning a 5 log range.
# (§3) The data points in the graphs of FIGS. 13A-13C represent % control growth at a given HSL analog concentration. IC50 values represent the concentration of HSL analog at which growth of the treated cells is inhibited by 50%. The structure of the tested compounds, designated by number, are as set forth in FIG. 13 from which it can be sent that the phenyl-HSL analogs tested range from C5 (compound 12) to C14 (compound 25). […] This effect decreases as the chain length reaches C14, as indicated by an increase in the IC50 values. […] Specifically, the C10 phenyl analog (compound 20) is equally as active as the 3-oxo-C12 HSL used as a positive control, despite having two fewer carbons in the alkyl chain.
# H630 = assay: Sulforhodamine-B growth inhibition assay, 5 days; format: cell-based, human; conditions: H630 cells, SRB staining
# Protocol: as §2, §3
# [7] = system: PC-3 (prostate cancer cells); assay: Sulforhodamine-B growth inhibition assay, 5 days; format: cell-based, human; conditions: PC-3 cells, SRB staining
# Protocol: as §2, §3
smiles,measurement,setting,value
CCCCCC(=O)NC1CCOC1=O (stereo not shown) [C6-(D)—HSL],down-regulation of TS protein (activity in words),TS [1]; Western blot,inactive
CCCCCCCCCCCC(=O)N[C@H]1CCOC1=O [Compound C12-HSL],down-regulation of TS protein,TS [1]; at concentrations as high as 100 μM,inactive
same,IC50,"H630 cells [2]; FIG. 9B, read-out: IC50 growth inhibition",1000 µM
Cc1nc2ccc(CN(C)c3ccc(C(=O)N[C@@H](CCC(=O)O)C(=O)O)s3)cc2c(=O)[nH]1 [tomudex],enhancement of activity by 3-oxo-C12-HSL,H630 cells [3]; H630 cells,enhancement
"CCCCCC(=O)N[C@H]1CCOC1=O (single isomer, unassigned) [(L)-isomer of C6-HSL, N-hexanoyl (L-)-homoserine lactone]",down-regulation of TS protein (activity in words),TS [1]; Western blot,active
"O=c1[nH]c(=O)n([C@H]2C[C@H](O)[C@@H](CO)O2)cc1F [FUdR, fluorodeoxyuridine]",enhancement of activity by 3-oxo-C12-HSL,H630 cells [3]; H630 cells,enhancement
"O=c1[nH]cc(F)c(=O)[nH]1 [FU, 5-fluorouracil]",enhancement of activity by 3-oxo-C12-HSL,H630-1 cells [4],No enhancement
same,IC50,"H630 cells [3]; Homo sapiens, NCI-H630, 336 h, read-out: apparent IC50 of FU, FU alone",1 µM
"CCCCCCCCCC(=O)CC(=O)N[C@H]1CCOC1=O [3-oxo-C12-HSL, 3-oxo-C12 homoserine lactone]",concentration needed to reduce the amount of TS,TS [1]; FIG. 8B,1 to 10 µM
same,lowest concentration causing down-regulation of TS,"TS [1]; Western blot, FIG. 8B",10 µM
same,effect on tubulin with increasing concentrations,tubulin,appears to decrease
same,TS mRNA levels,TS mRNA,unaffected
same,TS modulatory activity (luminescence),TS [5],no detectable TS modulatory activity
same,IC50,H630 cells [2]; 3 days,23 µM
same,"growth inhibition, relative activity of stereoisomer",H630 cells [2]; FIG. 9B,more active than the racemic mixture
same,IC50,H630-1 cells [6],8 µM
same,IC50,MCF-7 cells,16 µM
same,IC50,NCI-H460,35 µM
same,IC50,H630-1,12 µM
same,IC50,H630,35 µM
same,IC50,[7],10 µM
same,IC50,"H630 cells [3]; read-out: IC50 for inhibition of cell growth in a clonogenic assay, H630 cells, FIG. 9B solid circles",~10 µM
"CCCC(=O)CC(=O)N[C@H]1CCOC1=O [Compound 3-oxo-C6-HSL, 3-oxo-N-hexanoyl-(L-)homoserine lactone]",time for which the TS reduction is maintained,TS [1]; 3 mM,approximately 24 hours
same,reduction of TS levels,"TS [1]; 3 mM, after 16 hours",approximately 50%
same,TS modulatory activity (luminescence),TS [5],potent modulator of TS
CC(=O)O[C@H]1C(=O)[C@@]2(C)[C@H]([C@H](OC(=O)c3ccccc3)[C@]3(O)C[C@H](OC(=O)[C@H](O)[C@@H](NC(=O)c4ccccc4)c4ccccc4)C(C)=C1C3(C)C)[C@]1(OC(C)=O)CO[C@@H]1C[C@@H]2O [taxol],IC50,"H630-1 cells [4]; Homo sapiens, FIG. 11E",0.02 µM
same,enhancement of activity by 3-oxo-C12-HSL,H630-1 cells [4],some enhancement
same,enhancement of activity by 3-oxo-C12-HSL,H630 cells [3]; H630 cells,some enhancement
same,IC50,"H630 cells [3]; Homo sapiens, NCI-H630, read-out: IC50 colony formation",0.006 µM
"CCCC(=O)CC(=O)OCC [3-(oxo)-ethylhexanoate, reference compound]",down-regulation of TS protein (activity in words),TS [1]; Western blot,inactive
"CCCCCC(=O)NC1CCOC1=O (racemic) [C6-HSL racemic mix, hexanoyl-homoserine lactone]",down-regulation of TS protein (activity in words),TS [1]; Western blot,less active
COc1cccc2c1C(=O)c1c(O)c3c(c(O)c1C2=O)C[C@@](O)(C(=O)CO)C[C@@H]3O[C@H]1C[C@H](N)[C@H](O)[C@H](C)O1 [adriamycin],enhancement of activity by 3-oxo-C12-HSL,H630 cells [3]; H630 cells,not
CN(Cc1cnc2nc(N)nc(N)c2n1)c1ccc(C(=O)N[C@@H](CCC(=O)O)C(=O)O)cc1 [methotrexate],enhancement of activity by 3-oxo-C12-HSL,H630 cells [3]; H630 cells,not
"O=c1[nH]c(=O)n([C@@H]2O[C@H](CO)[C@@H](O)[C@H]2O)cc1F [FUrd, 5-fluorouridine]",enhancement of activity by 3-oxo-C12-HSL,H630 cells [3]; H630 cells,no enhancement
